Measured values: ChEMBL document CHEMBL4616724, “Topoisomerase Inhibitors Addressing Fluoroquinolone Resistance in Gram-Negative Bacteria” (J Med Chem, 2020)
≈ marks a conversion by molar mass, not a printed value.

Assays:
Escherichia coli [1] = assay: Antibacterial activity against wild type Escherichia coli ATCC 25922 at pH 5.8 by CLSI-based broth microdilution assay; type: functional
Escherichia coli [2] = assay: Antibacterial activity against Escherichia coli BW25113/JW0451-2 harboring AcrB deletion mutant by CLSI-based broth microdilution assay; type: functional
[3] = Intrinsic clearance in rat liver microsomes at 1 uM in presence of NADPH and measured up to 30 mins by LC-MS/MS analysis; type: ADME, Microsome; settings: read-out: CLH
Pseudomonas aeruginosa [4] = assay: Antibacterial activity against wild type Pseudomonas aeruginosa PAO1 K767 by CLSI-based broth microdilution assay; type: functional
Klebsiella pneumoniae = assay: Antibacterial activity against wild type Klebsiella pneumoniae ATCC 43816 by CLSI-based broth microdilution assay; type: functional
[5] = n-Octanol-PBS buffer partition coefficient, log D of the compound at pH 7.4 after overnight incubation by LC/UV/qTOF analysis; type: physicochemical
[6] = Protein binding in Sprague-Dawley rat plasma at 10 uM incubated for 4 hrs under shaking condition by LC-MS/MS analysis; type: ADME, cell-free; settings: read-out: PPB (converted)
[7] = Protein binding in CD1 mouse plasma at 10 uM incubated for 4 hrs under shaking condition by LC-MS/MS analysis; type: ADME, cell-free; settings: read-out: PPB (converted)
[8] = Intrinsic clearance in human liver microsomes at 1 uM in presence of NADPH and measured up to 30 mins by LC-MS/MS analysis; type: ADME, Microsome; settings: read-out: CLH
Pseudomonas aeruginosa [9] = assay: Antibacterial activity against Pseudomonas aeruginosa K1542/K767 harboring MexB/MexXY deletion mutant by CLSI-based broth microdilution assay; type: functional
Escherichia coli [10] = assay: Antibacterial activity against wild type Escherichia coli ATCC 25922 at pH 7.4 by CLSI-based broth microdilution assay; type: functional
[11] = Protein binding in pooled human plasma at 10 uM incubated for 4 hrs under shaking condition by LC-MS/MS analysis; type: ADME, cell-free; settings: read-out: PPB (converted)
[12] = Solubility of the compound in pH 7 PBS incubated for 24 hrs under gently shaking condition by UPLC/UV/CLND/MS analysis; type: physicochemical; settings: PBS, pH 7
[13] = Efflux ratio of apparent permeability in human Caco2 cells at 10 uM after 2 hrs by LC-MS/MS analysis; type: ADME, cell-based; settings: Caco-2
Pseudomonas aeruginosa [14] = assay: Antibacterial activity against Pseudomonas aeruginosa NB52023 harboring gyrA T83I mutant/ParC S87L mutant by CLSI-based broth microdilution assay; type: functional
[15] = molecular target: Voltage-gated inwardly rectifying potassium channel KCNH2 (Homo sapiens, UniProt Q12809); assay: Inhibition of human ERG expressed in CHOK1 cells by QPatch automated patch-clamp assay; type: cell-based, CHO-K1
Voltage-gated inwardly rectifying potassium channel KCNH2, sequence (Q12809 whole entry): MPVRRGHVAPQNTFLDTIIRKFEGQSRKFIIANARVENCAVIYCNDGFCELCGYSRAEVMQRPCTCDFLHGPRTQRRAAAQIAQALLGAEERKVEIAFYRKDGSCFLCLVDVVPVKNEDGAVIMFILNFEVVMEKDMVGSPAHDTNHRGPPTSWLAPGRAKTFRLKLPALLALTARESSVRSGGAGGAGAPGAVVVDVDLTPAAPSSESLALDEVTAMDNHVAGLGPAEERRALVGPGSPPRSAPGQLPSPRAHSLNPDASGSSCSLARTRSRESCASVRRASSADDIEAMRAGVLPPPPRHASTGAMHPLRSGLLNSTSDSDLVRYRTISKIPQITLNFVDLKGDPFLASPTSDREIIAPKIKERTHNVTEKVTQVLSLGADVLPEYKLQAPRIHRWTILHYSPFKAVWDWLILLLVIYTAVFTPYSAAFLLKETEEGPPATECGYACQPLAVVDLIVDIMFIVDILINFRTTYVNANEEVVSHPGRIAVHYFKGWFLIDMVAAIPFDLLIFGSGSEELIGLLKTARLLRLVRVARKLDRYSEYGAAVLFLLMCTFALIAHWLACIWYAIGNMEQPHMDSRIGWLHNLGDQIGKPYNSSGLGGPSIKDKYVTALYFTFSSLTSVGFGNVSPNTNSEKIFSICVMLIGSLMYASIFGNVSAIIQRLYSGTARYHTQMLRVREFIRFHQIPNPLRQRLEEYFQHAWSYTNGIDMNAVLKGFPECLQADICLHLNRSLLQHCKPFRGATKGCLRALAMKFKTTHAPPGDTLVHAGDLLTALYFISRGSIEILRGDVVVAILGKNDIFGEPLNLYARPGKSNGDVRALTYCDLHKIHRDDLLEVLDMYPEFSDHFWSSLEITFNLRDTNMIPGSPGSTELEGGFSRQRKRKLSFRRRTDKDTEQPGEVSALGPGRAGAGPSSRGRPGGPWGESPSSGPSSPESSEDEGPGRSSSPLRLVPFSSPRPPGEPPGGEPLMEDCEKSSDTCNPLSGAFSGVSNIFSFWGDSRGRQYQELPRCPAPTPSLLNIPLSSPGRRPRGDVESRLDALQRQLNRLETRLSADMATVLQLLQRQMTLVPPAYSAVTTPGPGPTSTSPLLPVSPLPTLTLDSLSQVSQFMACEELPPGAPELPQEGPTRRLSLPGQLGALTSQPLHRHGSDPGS

[16] = Selectivity ratio of MIC for wild type Escherichia coli ATCC 25922 to MIC for Escherichia coli BW25113/JW0451-2 harboring AcrB deletion mutant; type: functional
Escherichia coli [17] = assay: Ratio of MIC for antibacterial activity against wild type Escherichia coli ATCC 25922 at pH 5.8 to MIC for antibacterial activity against wild type Escherichia coli ATCC 25922 at pH 7.4; type: functional
[18] = Inhibition of recombinant full-length C-terminal His6-tagged Escherichia coli DNA topoisomerase 4 subunit ParC/ParE using kinetoplast DNA as substrate preincubated for 30 mins followed by substrate addition and measured after 1 hr in presence of ATP by size exclusion chromatography
Escherichia coli [19] = assay: Bacteriostatic activity against Escherichia coli ATCC 25922 infected in mouse model of neutropenic thigh infection assessed as static dose compound administered subcutaneously 2 hrs post infection and measured after 24 hrs by serial dilution method; type: functional
[20] = Dose normalized AUC in rat at 10 mg/kg, po measured up to 24 hrs by LC-MS/MS analysis; type: ADME, organism-based; settings: in vivo
in vivo = settings: mouse, po, 10 mg/kg
[21] = Tmax in rat at 10 mg/kg, po measured up to 24 hrs by LC-MS/MS analysis; type: ADME, organism-based; settings: in vivo
[22] = Dose normalized Cmax in rat at 10 mg/kg, po measured up to 24 hrs by LC-MS/MS analysis; type: ADME, organism-based; settings: in vivo

SMILES: Cc1c(N2CC[C@@H]([C@H](C)N)C2)c(F)cc2c(CN)cc(=O)n(C3CC3)c12
- MIC (Escherichia coli [1]): > 32 µg/mL
- MIC (Escherichia coli [2]): 0.06 µg/mL (≈ 0.167 µM)
- microsomal CLint at 1 µM [3]: < 7.7 µL/min/mg
- MIC (Pseudomonas aeruginosa [4]): 2 µg/mL (≈ 5.58 µM)
- MIC (Klebsiella pneumoniae): 4 µg/mL (≈ 11.2 µM)
- logD [5]: -0.29
- fraction unbound at 4 h, 10 µM [6]: 0.82
- fraction unbound at 4 h, 10 µM [7]: 0.44
- microsomal CLint at 1 µM [8]: 14 µL/min/mg
- MIC (Pseudomonas aeruginosa [9]): 0.5 µg/mL (≈ 1.39 µM)
- MIC (Escherichia coli [10]): 1 µg/mL (≈ 2.79 µM)
- fraction unbound at 4 h, 10 µM [11]: 0.83
- solubility at 24 h [12]: > 555 µg/mL
- efflux ratio at 2 h, 10 µM [13]: 18
- MIC (Pseudomonas aeruginosa [14]): 2 µg/mL (≈ 5.58 µM)
- IC50 [15]: > 300000 nM
- Selectivity ratio [16]: 16
- Ratio (Escherichia coli [17]): >=64

SMILES: O=C(O)c1cn(C2CC2)c2cc(N3CCNCC3)c(F)cc2c1=O [CIPROFLOXACIN]
- IC50 [18]: 2710 nM
- Activity (Escherichia coli [19]): 6.4 mg/kg/day
- AUC/dose [20]: 0.29 µM·h/mg/kg
- Tmax at 24 h (in vivo): 15 min
- Tmax [21]: 30 min
- Cmax/dose [22]: 0.14 µM/mg/kg
